Results from ChEMBL document CHEMBL5050830, “Novel antibacterial compounds” (2013).
pIC50, pKi: −log10 of the molar value. The source made the active and inactive calls. The calls are words filed in the database; no cut-off is given here.

Columns and labels:
NAD kinase 1 = target: T1, NAD kinase 1 (Listeria monocytogenes serovar 1/2a (strain ATCC BAA-679 / EGD-e), UniProt Q8Y8D7); experiment: Inhibition of His-tagged Listeria monocytogenes NADK1 in presence of glucose-6-phosphate dehydrogenase and NADP measured by spectrophotometry method
T1 sequence (Q8Y8D7 whole entry): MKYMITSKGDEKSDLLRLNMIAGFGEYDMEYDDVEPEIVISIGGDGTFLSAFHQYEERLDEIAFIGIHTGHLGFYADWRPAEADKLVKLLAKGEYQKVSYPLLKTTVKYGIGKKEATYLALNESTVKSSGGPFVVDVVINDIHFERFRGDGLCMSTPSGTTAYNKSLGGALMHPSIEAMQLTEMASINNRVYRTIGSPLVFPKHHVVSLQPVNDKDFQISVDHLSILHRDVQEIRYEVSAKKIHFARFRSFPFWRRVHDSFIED

[1] = Inhibition of His-tagged Staphylococcus aureus NADK in presence of glucose-6-phosphate dehydrogenase and NADP measured by spectrophotometry method
Staphylococcus aureus [2] = experiment: Antibacterial activity against Staphylococcus aureus S25 strain at 1 ug/ml assessed as decrease in number of colony forming units relative to control; type: functional, organism-based; conditions: dose 1.0 µg/ml
HeLa = experiment: Cytotoxicity against human HeLa cells at 10 uM assessed as change in cell shape and multiplication after 96 hrs; type: toxicity, cell-based
Staphylococcus aureus [3] = experiment: Antibacterial activity against Staphylococcus aureus S25 strain at 10 ug/ml assessed as decrease in number of colony forming units relative to control; type: functional, organism-based; conditions: dose 10.0 µg/ml
Staphylococcus aureus [4] = experiment: Antibacterial activity against Staphylococcus aureus S25 strain at 8 ug/ml assessed as decrease in number of colony forming units relative to control; type: functional, organism-based; conditions: dose 8.0 µg/ml

SMILES	pKi (NAD kinase 1)	pKi [1]	Activity (Staphylococcus aureus [2])	Activity (HeLa)	other results
NC[C@H]1O[C@@H](n2c(Br)nc3c(N)ncnc32)[C@H](O)[C@@H]1O					pIC50 (NAD kinase 1): 3.52
NC[C@H]1O[C@@H](n2c(SCC(=O)NC[C@H]3O[C@@H](n4cnc5c(N)ncnc54)[C@H](O)[C@@H]3O)nc3c(N)ncnc32)[C@H](O)[C@@H]1O	4.52	4.30	Active	Non-Toxic	
Nc1ncnc2c1ncn2[C@@H]1O[C@H](COCC#Cc2nc3c(N)ncnc3n2[C@@H]2O[C@H](CO)[C@@H](O)[C@H]2O)[C@@H](O)[C@H]1O	4.70	4.82	Active	Non-Toxic	
Nc1ncnc2c1ncn2[C@@H]1O[C@H](CNCC#Cc2nc3c(N)ncnc3n2[C@@H]2O[C@H](CO)[C@@H](O)[C@H]2O)[C@@H](O)[C@H]1O				Non-Toxic	Activity (Staphylococcus aureus [3]): Active
CN[C@H](CC(C)C)C(=O)N[C@H]1C(=O)N[C@@H](CC(N)=O)C(=O)N[C@H]2C(=O)N[C@H]3C(=O)N[C@H](C(=O)N[C@H](C(=O)O)c4cc(O)cc(O)c4-c4cc3ccc4O)[C@H](O)c3ccc(c(Cl)c3)Oc3cc2cc(c3O[C@@H]2O[C@H](CO)[C@@H](O)[C@H](O)[C@H]2O[C@H]2C[C@](C)(N)[C@H](O)[C@H](C)O2)Oc2ccc(cc2Cl)[C@H]1O					Activity (Staphylococcus aureus [4]): Active
